Like-named read-outs stand apart in the source and are kept apart here.
Experiments:
MCF-7 = assay: Cytotoxicity assay (SRB), MCF-7; assay type: cell-based; details: Homo sapiens, MCF7, 72 h, read-out: In Vitro Cellular Activity IC50 MCF-7
Description: (§1) BT474, HCT-116, LoVo and MCF-7 were maintained under 7% CO2 in RPMI 1640 medium supplemented with 10% fetal bovine serum and 50 µg/ml gentamicin.
(§2) Cells were plated in 96-well microtiter dishes (12000 cells/well for BT474, 4000 cells/well for HCT-116, 6000 cells/well for LoVo and 6000 cells/well for MCF-7) in RPMI 1640 medium containing 5% fetal bovine serum and 50 µg/ml gentamicin. The cells were allowed to incubate overnight at 37° C., 7% CO2. Compound dilutions were prepared using the same medium. HCT-116, LoVo and MCF-7 cells were cultured for three days and BT474 cells were cultured for 6 days, in the presence of each compound dilution. Untreated cells were included as controls. The percentage of surviving cells was determined using a protein binding dye (sulforhodamineB, SRB) assay. Cellular protein was precipitated in each well by the addition of 0.05 ml of 50% cold trichloroacetic acid (TCA). After 1 hour, the plates were washed extensively in dH2O and dried. The sulforhodamineB dye solution (0.08 mL of 0.4% SRB in 1% acetic acid) was added to each well, kept at room temperature for ten minutes, then washed in 1% acetic acid and dried. The dye was dissolved in 10 mM Tris-HCl (150 uL) and the absorbency read at 540 nm.

BT474 = assay: Cytotoxicity assay (SRB), BT474; assay type: cell-based; details: Homo sapiens, BT-474, 144 h, read-out: In Vitro Cellular Activity IC50 BT474
Description: as §1, §2

HCT-116 = assay: Cytotoxicity assay (SRB), HCT-116; assay type: cell-based; details: Homo sapiens, HCT-116, 72 h, read-out: In Vitro Cellular Activity IC50 HCT116
Description: as §1, §2

LoVo = assay: Cytotoxicity assay (SRB), LoVo; assay type: cell-based; details: Homo sapiens, LoVo, 72 h, read-out: In Vitro Cellular Activity IC50 LOVO
Description: as §1, §2

cyclin D1/cdk 4 enzyme = target: T1, cyclin D1/cdk 4 enzyme (Homo sapiens, UniProt P11802); assay: CDK4 ELISA kinase assay (phospho-Rb ser 795 detection); assay type: biochemical; details: In Vitro Enzyme Assay, cyclin D1/cdk 4, read-out: CDK4 IC50
T1 construct: made in house; host or cells: Sf9 insect cells, recombinant baculovirus
Method in brief: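 Inhibition was derived from A450 relative to control wells lacking compound, following an anti-phospho-Rb Ser795 sandwich of HRP detection. The reactions combined coated GST-Rb fragment, 200 μM ATP and baculovirus-expressed cyclin/CDK enzymes, incubated for 1 h at 30° C.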

T1 sequence (P11802 whole entry, species assumed): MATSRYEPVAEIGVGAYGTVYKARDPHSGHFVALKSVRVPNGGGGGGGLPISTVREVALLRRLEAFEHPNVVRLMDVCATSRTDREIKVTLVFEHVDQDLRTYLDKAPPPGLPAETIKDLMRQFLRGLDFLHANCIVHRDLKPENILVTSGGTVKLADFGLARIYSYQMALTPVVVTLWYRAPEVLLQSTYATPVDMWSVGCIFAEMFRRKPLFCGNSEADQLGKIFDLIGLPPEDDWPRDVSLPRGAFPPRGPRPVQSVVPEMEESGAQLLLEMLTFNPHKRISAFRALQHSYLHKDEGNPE
T1 sequence (P24385 whole entry partner, species assumed): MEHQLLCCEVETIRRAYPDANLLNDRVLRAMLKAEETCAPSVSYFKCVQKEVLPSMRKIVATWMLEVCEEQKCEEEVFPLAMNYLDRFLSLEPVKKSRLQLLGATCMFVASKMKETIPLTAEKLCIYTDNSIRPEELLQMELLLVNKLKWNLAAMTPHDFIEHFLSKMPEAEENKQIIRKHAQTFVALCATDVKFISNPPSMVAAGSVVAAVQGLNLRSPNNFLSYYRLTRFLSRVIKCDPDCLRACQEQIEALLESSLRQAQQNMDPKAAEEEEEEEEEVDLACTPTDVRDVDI

IC50 (cyclin D1/cdk 4 enzyme) [µM]	Structure (SMILES)	IC50 (MCF-7; MCF-7 cells, SRB, three days) [µM]	IC50 (BT474; BT474 cells, SRB, 6 days) [µM]	IC50 (HCT-116; HCT116 cells, SRB, three days) [µM]	IC50 (LoVo; LoVo cells, SRB, three days) [µM]	other results
	CCCCN(C)CCN(C)c1ccc(NC=C2C(=O)NC(=O)c3ccc(Br)cc32)cc1 (stereo in doubt) [Example 257, (4Z)-6-Bromo-4-[({4-[{2-[butyl(methyl)amino]ethyl}(methyl)amino]phenyl}amino)methylene]isoquinoline-1,3(2H,4H)-dione]	3.6	6.5	2.5	4.7	
	CCCCN(C)CCN(C)c1ccc(NC=C2C(=O)NC(=O)c3ccc(Br)cc32)cc1 (stereo in doubt) [Example 866, (4Z)-6-Bromo-4-[({4-[{2-[butyl(methyl)amino]ethyl}(methyl)amino]phenyl}amino)methylene]isoquinoline-1,3(2H,4H)-dione]					IC50 (MCF-7; MCF-7 cells, 3 days, SRB): 3.6 µM; IC50 (BT474; BT474 cells, 6 days, SRB): 6.5 µM; IC50 (HCT-116; HCT116 cells, 3 days, SRB): 2.5 µM; IC50 (LoVo; LoVo cells, 3 days, SRB): 4.7 µM
	CN(CCN1CCOCC1)c1ccc(NC=C2C(=O)NC(=O)c3ccc(Br)cc32)cc1 (stereo in doubt) [Example 871, (4Z)-6-Bromo-4-[({4-[methyl(2-morpholin-4-ylethyl)amino]phenyl}amino)methylene]isoquinoline-1,3(2H,4H)-dione]					IC50 (MCF-7; MCF-7 cells, 3 days, SRB): 29.1 µM; IC50 (BT474; BT474 cells, 6 days, SRB): > 50 µM; IC50 (HCT-116; HCT116 cells, 3 days, SRB): 13.9 µM; IC50 (LoVo; LoVo cells, 3 days, SRB): 46.6 µM
	CN1C(=O)/C(=C\Nc2ccc(CN3CCCCC3)cc2)c2ccccc2C1=O [Example 49, (4Z)-2-Methyl-4-{[(4-piperidin-1-ylmethyl)phenyl]amino}methyleneisoquinoline-1,3(2H,4H)-dione]					IC50 (MCF-7): 13 µM; IC50 (BT474): 6.85 µM; IC50 (HCT-116): 5.5 µM; IC50 (LoVo): 11.5 µM
	O=C1NC(=O)c2ccc(Br)cc2/C1=C/NCc1ccc2cc[nH]c2c1 [Example 129, (4Z)-6-Bromo-4-{[(1H-indol-6-ylmethyl)amino]methylene}isoquinoline-1,3(2H,4H)-dione]	39	30	26	> 50	
	COc1ccc(CN/C(C)=C2\C(=O)NC(=O)CC2c2ccccc2)cc1O (stereo not drawn) [Example 140, (3Z)-3-{1-[(3-hydroxy-4-methoxybenzyl)amino]ethylidene}-4-phenylpiperidine-2,6-dione]	> 50	30	> 50	> 50	
	O=C1NC(=O)c2ccc(Br)cc2/C1=C/NCc1ccc(OCCOCc2ccccc2)c(O)c1 [Example 159]	> 50	25	16	18	
	COc1ccc(CN/C=C2\C(=O)N(C(C)=O)N(C(C)=O)c3ccccc32)cc1O [Example 167, (4Z)-1,2-Diacetyl-4-{[(3-hydroxy-4-methoxybenzyl)amino]methylene}-1,4-dihydrocinnolin-3(2H)-one]	13	9.6	11	12	
	O=C1NC(=O)c2ccc(Br)cc2/C1=C/NCc1ccccc1O [Example 174, (4Z)-6-Bromo-4-{[(2-hydroxybenzyl)amino]methylene}isoquinoline-1,3(2H,4H)-dione]	50	30	19	35	
	COc1ccc(CN/C=C2\C(=O)NC(=O)c3ccc(Br)cc32)cc1F [Example 181, (4Z)-6-Bromo-4-{[(3-fluoro-4-methoxybenzyl)amino]methylene}isoquinoline-1,3(2H,4H)-dione]	> 50	> 50	16	> 50	
	CN1CCN(c2ccc(N/C=C3\C(=O)NCc4ccc(Br)cc43)cc2)CC1 [Example 223, (4Z)-6-Bromo-4-({[4-(4-methylpiperazin-1-yl)phenyl]amino}methylene)-1,4-dihydroisoquinolin-3(2H)-one]	3.2	8.7	4.1	2.8	
	O=C1NC(=O)c2ccc(Br)cc2/C1=C/Nc1ccc2ncccc2c1 [Example 271, (4Z)-6-Bromo-4-[(quinolin-6-ylamino)methylene]isoquinoline-1,3(2H,4H)-dione]	39	32	46	> 50	
15	CC(C#N)=C(C)c1ccc2c(c1)C(=CNc1ccc(N3CCN(C)CC3)cc1)C(=O)NC2=O [Example 802, 2-Methyl-3-(4-{[4-(4-methyl-piperazin-1-yl)-phenylamino]-methylene}-1,3-dioxo-1,2,3,4-tetrahydro-isoquinolin-6-yl)-but-2-enenitrile]					
4.97	CN1CCN(c2ccc(NC=C3C(=O)NC(=O)c4ccc(C=Cc5ccc(CC#N)cc5)cc43)cc2)CC1 [Example 803, {4-[2-(4-{[4-(4-Methyl-piperazin-1-yl)-phenylamino]-methylene}-1,3-dioxo-1,2,3,4-tetrahydro-isoquinolin-6-yl)-vinyl]-phenyl}-acetonitrile]					
2.1	CN1CCN(c2ccc(NC=C3C(=O)NC(=O)c4ccc(-c5ccc6c(c5)OCO6)cc43)cc2)CC1 [Example 806, 6-Benzo[1,3]dioxol-5-yl-4-{[4-(4-methyl-piperazin-1-yl)-phenylamino]-methylene}-4H-isoquinoline-1,3-dione]					
14.5	CN1CCN(c2ccc(NC=C3C(=O)NC(=O)c4ccc(-c5ccc(N(C)C)cc5)cc43)cc2)CC1 [Example 807, 6-(4-Dimethylamino-phenyl)-4-{[4-(4-methyl-piperazin-1-yl)-phenylamino]-methylene}-4H-isoquinoline-1,3-dione]					
13.8	CN1CCN(c2ccc(NC=C3C(=O)NC(=O)c4ccc(-c5ccc(CCC(=O)O)cc5)cc43)cc2)CC1 [Example 809, 3-[4-(4-{[4-(4-Methyl-piperazin-1-yl)-phenylamino]-methylene}-1,3-dioxo-1,2,3,4-tetrahydro-isoquinolin-6-yl)-phenyl]-propionic acid]					
2.76	CN1CCN(c2ccc(NC=C3C(=O)NC(=O)c4ccc(-c5cccc(N)c5)cc43)cc2)CC1 [Example 810, 6-(3-Amino-phenyl)-4-{[4-(4-methyl-piperazin-1-yl)-phenylamino]-methylene}-4H-isoquinoline-1,3-dione]					
22.3	CN1CCN(c2ccc(NC=C3C(=O)NC(=O)c4ccc(-c5ccc(Cl)cc5Cl)cc43)cc2)CC1 [Example 811, 6-(2,4-Dichloro-phenyl)-4-{[4-(4-methyl-piperazin-1-yl)-phenylamino]-methylene}-4H-isoquinoline-1,3-dione]					
2.75	COc1ccc(-c2ccc3c(c2)C(=CNCc2ccc(O)c(O)c2)C(=O)NC3=O)c(OC)c1 [Example 814, 4-[(3,4-Dihydroxy-benzylamino)-methylene]-6-(2,4-dimethoxy-phenyl)-4H-isoquinoline-1,3-dione]					
2.5	COc1cc(-c2ccc3c(c2)C(=CNCc2ccc(O)c(O)c2)C(=O)NC3=O)cc(OC)c1OC [Example 815, 4-[(3,4-Dihydroxy-benzylamino)-methylene]-6-(3,4,5-trimethoxy-phenyl)-4H-isoquinoline-1,3-dione]					
4.4	CN1CCN(c2ccc(NC=C3C(=O)NC(=O)c4ccc(C=C5CCCC5)cc43)cc2)CC1 [Example 828, 6-Cyclopentylidenemethyl-4-{[4-(4-methyl-piperazin-1-yl)-phenylamino]-methylene}-4H-isoquinoline-1,3-dione]					
26.5	CN1CCN(c2ccc(NC=C3C(=O)NC(=O)c4ccc(C=Cc5ccc([N+](=O)[O-])cc5)cc43)cc2)CC1 [Example 829, 4-{[4-(4-Methyl-piperazin-1-yl)-phenylamino]-methylene}-6-[2-(4-nitro-phenyl)-vinyl]-4H-isoquinoline-1,3-dione]					
31	COc1ccc(NC=C2C(=O)NCc3cc(Br)ccc32)cc1O [Example 862, 7-Bromo-4-[(3-hydroxy-4-methoxy-phenylamino)-methylene]-1,4-dihydro-2H-isoquinolin-3-one]					

— patent US7713994B2 (Wyeth LLC, priority 2005, dated 2010)
